Source: patent publication US12600997B2, “Fermentative production of sialylated saccharides” (priority 2018, dated 2026)

How the values were obtained:
[1] = system: SiaT18 (α-2,6-sialyltransferase); assay: In vitro sialyltransferase activity assay with acceptor substrates, product detected by thin layer chromatography; type: biochemical, Photobacterium leiognathi JT-SHIZ-119; parameters: key to Formation of sialylated reaction product, SiaT18: +: A sialylated reaction product was detectable.; −: A sialylated reaction product was not detectable; conditions: TLC; for Formation of sialylated reaction product, SiaT18: E. coli protein extract, 10 mM CMP-Neu5Ac, 5 to 20 mM acceptor substrate, 16 hours; for Sialylation of acceptor substrate by SiaT18: in vitro assay, summary of Table 3
Method: (§1) The E. coli strains harboring the plasmids for siaT9 (α-2,3-sialyltransferase) and siaT18 (α-2,6-sialyltransferase) expression were grown at 30° C. in 100 ml shake flasks filled with 20 ml of 2YT medium supplemented with ampicillin 100 μg ml^−1. When the cultures reached an OD600 of 0.1 to 0.3, gene expression was induced by addition of 0.3 mM IPTG and the incubation was continued for 12 to 16 hours. Cells were harvested by centrifugation and mechanically disrupted in a defined volume of 50 mM Tris-HCl pH7.5 using glass beads. The protein extract was kept on ice until the assay started. The in vitro assay was carried out in a total volume of 25 μl including 50 mM Tris-HCl PH7.5, 5 mM MgCl2, 10 mM CMP-Neu5Ac and 5 to 20 mM of the appropriate acceptor substrates. The assay started with the addition of 3 μl protein extract and continued for 16 hours. Formation of sialylated oligosaccharides resulting from the activity of the sialyltransferases was determined by thin layer chromatography.
(§2) Therefore, samples were applied on Silica Gel 60 F254 (Merck KGaA, Darmstadt, Germany)-plates. A mixture of butanol:acetone:acetic acid:H2O (35/35/7/23 (v/v/v/v)) was used as mobile phase. For detection of the separated substances, the TLC plate was soaked with thymol reagent (0.5 g thymol solved in 95 ml ethanol, 5 ml sulfuric acid added) and heated. Sialylated reaction products run slower than their acceptor substrates.
(§3) Table 3: In vitro analyses determining sialyltransferase activities of two exemplary sialyltransferases depending on the supplied acceptor substrate. The formation of sialylated saccharides was determined by thin layer chromatography. (+) A sialylated reaction product was detectable. (−) A sialylated reaction product was not detectable.

[2] = system: SiaT9 (α-2,3-sialyltransferase); assay: as above; type: biochemical, Vibrio sp. JT-FAJ-16; parameters: key to Formation of sialylated reaction product, SiaT9: +: A sialylated reaction product was detectable.; −: A sialylated reaction product was not detectable; conditions: TLC; for Formation of sialylated reaction product, SiaT9: E. coli protein extract, 10 mM CMP-Neu5Ac, 5 to 20 mM acceptor substrate, 16 hours; for Sialylation of acceptor substrate by SiaT9: in vitro assay, summary of Table 3
Method: as §1, §2, §3

With `O=C[C@H](O)[C@@H](O)[C@@H](O)[C@H](O)CO` [Galactose] the “Formation of sialylated reaction product, SiaT18” value (shortened to “Formation … SiaT18”) [1] was “+”, the “Sialylation of acceptor substrate by SiaT18” value [1] was “capable to sialylate” and the “Formation of sialylated reaction product, SiaT9” value (“Formation … SiaT9” for short) [2] was “+”. The “Sialylation of acceptor substrate by SiaT9” value [2] was “capable to sialylate”.
In the case of `CC(=O)N[C@H]1[C@H](O[C@H]2[C@@H](O)[C@@H](CO)O[C@@H](O[C@H]3[C@H](O)[C@@H](O)C(O)O[C@@H]3CO)[C@@H]2O)O[C@H](CO)[C@@H](O)[C@@H]1O[C@@H]1O[C@H](CO)[C@H](O)[C@H](O)[C@H]1O` (stereo partly drawn) [Lacto-N-tetraose], the “Formation … SiaT18” value [1] is reported as “+” and the “Formation … SiaT9” value [2] is reported as “+”.
`OC[C@H]1O[C@@H](O[C@H]2[C@H](O)[C@@H](O)C(O)O[C@@H]2CO)[C@H](O)[C@@H](O)[C@H]1O` (stereo partly drawn) [Lactose] was tested, and the “Formation … SiaT18” value [1] was “+” and the “Formation … SiaT9” value [2] was “+”.
With `OC[C@H]1O[C@@](CO)(O[C@H]2O[C@H](CO)[C@@H](O)[C@H](O)[C@H]2O)[C@@H](O)[C@@H]1O` [Sucrose] the “Formation … SiaT18” value [1] was “−”, the “Sialylation of acceptor substrate by SiaT18” value [1] was “No sialylated oligosaccharide was detectable” and the “Formation … SiaT9” value [2] was “−”. For the same molecule, the “Sialylation of acceptor substrate by SiaT9” value [2] was “No sialylated oligosaccharide was detectable”.
